From patent US20240041977A1, “ANNEXIN A1 N-TERMINAL PEPTIDE FORMULATIONS AND METHODS” (ResoTher Pharma A/S, priority 2020, published 2024)
Marks after values point to notes of the source that are not given here. Ends that are not written are not given here.

How the values were obtained:
[1] = Solubility: concentration of AnxA1 in solution/supernatant by UV-VIS; format: physicochemical
Procedure: The concentration of AnxA1 was determined using UV-VIS spectroscopy using a Nanodrop 2000c from Thermo scientific and an extinction coefficient of A280^0.1%=1.64 ml mg^−1cm^−1.
Three samples of AnxA1 was prepared at pH 9 in Milli Q® water, 0.9% NaCl (154 mM) at concentrations 3.3, 1.6 and 0.8 mg/mL, respectively. pH was adjusted by addition of 0.1 M NaOH to each of the samples and the concentration determined after centrifugation using UV-VIS spectroscopy.
AnxA1 samples are dissolved in Milli Q® water or 5% mannitol in Milli Q® water to approximately 18 mg/mL and pH was adjusted using 1.0 M HCl and NaOH. After dissolution visual appearance was noted and a photograph was taken, see FIG. 6 and Table 4, and a sample was cleared by centrifugation and the concentration determined in the supernatant using UV-VIS spectroscopy.

[2] = ThT assay lag-time (fibrillation propensity, physical stability); format: physicochemical
Text: ThT is widely used to visualize and quantify the presence of misfolded peptide and protein aggregates called amyloids or fibrils. ThT is a fluorescent molecule that binds to inter molecular beta-sheets in peptides and proteins (here AnxA1). […] A weaker fluorescence intensity is indicative of less amyloids or fibrils present with fewer intermolecular beta-sheets where ThT can bind. Some peptides have a tendency to form fibrils and amyloids and the propensity is dependent on the formulation conditions in an unpredictable manor. Fibrillation is a stochastic process and to avoid long analysis times and both false negatives and positive results, shear stress is introduced to the sample by rigorous rotation in microtiter plates while continuously monitoring the fluorescence emission at approximately 486 nm. An increase in the fluorescence is an indication of the formation of amyloids or fibrils and the time it takes for the fluorescence to start increasing is known as the lag-time. A faster (short) lag-time is an indication of higher propensity for the peptide to degrade by formation of fibrils or amyloids. A ThT fluorescence of 50 AU at t=0 is considered noise or background. Lag time is reported as the time it takes for the signal intensity to exceed 50 AU. All samples for the ThT assay were filtered through cellulose acetate filters ([…], Ø=13 mm, rinsed with MilliQ® water prior to filtration). For each sample, 20 μL ThT of a 1 mM solution was added to 1 mL peptide solution. From this sample mixture, 200 μL was transferred into n wells in a 96 well microtiter plate (n=3-6). 96-well NUNC plates Bottom optics and Sealing tape, Thermo Scientific™ Nunc™ Sealing Tapes, was used. Lag-time is reported as an average of n samples. A fluorescence plate reader (CLARIOstar® Plus, BMG Labtech) was used for the experiments with the following setting: Excitation wavelength 450 nm; Dichroic filter 465 nm; Emission wavelength 486 nm; Focal height 3.5 mm; Gain 1000; […]; […]; Number of flashes per well 20; Temperature 25° C.; Shake mode orbital, Frequency of 300 rpm, 200 s, and shake after each cycle. If possible, the average of all ThT data replicates are used for ThT lag-time determination. In case of very stochastic data, worst-case data is used for lag-time evaluation. ThT lag-time was determined using either a 1-step or 2-step sigmoidal curve.

Q: For “AMVSEFLKQAWFIENEEQEYVQTLKSSKGGPGSAVSPYPTFNPSSDV-NH2 [AnxA1]”, which solubility thermodynamic ([1]; 0.9% NaCl (154 mM) in Milli Q water, saline or isotonic, 20 mg freeze-dried AnxA1 per mL 0.9% NaCl (154 mM) in Milli Q, neutral pH, over night at room temperature on rotation, spun down) is on record?
A: The solubility thermodynamic was ~170 µg/mL.

Q: And the “solubility (concentration A280 as a function of pH)” value ([1]; AnxA1 3.3, 1.6 and 0.8 mg/mL in MiliQ water, 0.9% NaCl (154 mM), below pH 6.0)?
A: The value was “very low”.

Q: And the solubility ([1]; saline at neutral pH around 7.3)?
A: Its solubility is “poorly soluble”.

Q: What about the “fibrillation in ThT assay” value ([2]; 6.4 mg/mL, possibly 5.0 mg/ml, and above, 0.9% NaCl) of the same substance?
A: The value was “already degraded by the formation of fibrils at time zero”.

Q: What about the lag-time ([2]; 10 mM tris, pH 7.5, AnxA1 1.7 mg/mL containing 5% mannitol or sorbitol) of the same substance?
A: The lag-time was > 65 h.

Q: And the Lag-time ([2]; AnxA1 1.4 mg/mL, mannitol 4 wt.%, sucrose 2.5 wt.%, glycyl-glycine 50 mM, pH 8.5)?
A: Its Lag-time is >65 h.

Q: What about the Lag-time ([2]; AnxA1 1.4 mg/mL, sucrose 10 wt.%, glycyl-glycine 50 mM, pH 8.5) of the same substance?
A: The Lag-time was >65 h.

Q: And the Avg. lag-time ([2]; AnxA1 1.5 mg/mL, NaCl 0.9%, ZnCl2 0.77 mM, pH N/A)?
A: The Avg. lag-time was 1.8 h.

Q: What about the Avg-lag time ([2]; AnxA1 1.5 mg/mL, glucose 5 wt.%, pH 7.1) of the same substance?
A: The Avg-lag time was 21.7 h.

Q: What about the Lag-time ([2]; AnxA1 1.5 mg/mL, mannitol 4 wt.%, sucrose 2.5 wt.%, glycyl-glycine 10 mM, pH 7.5) of the same substance?
A: Its Lag-time is >65 h.

Q: And the Lag-time ([2]; AnxA1 1.5 mg/mL, mannitol 4 wt.%, sucrose 2.5 wt.%, glycyl-glycine 50 mM, pH 7.6)?
A: The Lag-time was >65 h.

Q: And the Lag-time ([2]; AnxA1 1.5 mg/mL, mannitol 5 wt.%, glycyl-glycine 10 mM, pH 7.4, analysis timeframe 65 hours)?
A: Its Lag-time is >65* hours.

Q: And the Lag-time ([2]; AnxA1 1.5 mg/mL, mannitol 5 wt.%, glycyl-glycine 50 mM, pH 7.5)?
A: The Lag-time was >65 h.

Q: What about the Lag-time ([2]; AnxA1 1.5 mg/mL, sucrose 10 wt.%, Tris 10 mM, pH 7.5) of the same substance?
A: The Lag-time was 42.8 h.

Q: What about the Lag-time ([2]; AnxA1 1.5 mg/mL, sucrose 10 wt.%, glycyl-glycine 10 mM, pH 8.3) of the same substance?
A: Its Lag-time is >65 h.

Q: What about the Avg. lag-time ([2]; AnxA1 1.6 mg/mL in Milli Q water, no salt, pH 7.5, maximum assay time 50 hours) of the same substance?
A: Its Avg. lag-time is >50.0* h.

Q: What about the Avg. lag-time ([2]; AnxA1 1.6 mg/mL in Milli Q water, no salt, pH 7.6, maximum assay time 50 hours) of the same substance?
A: Its Avg. lag-time is >50.0* h.

Q: What about the Avg. lag-time ([2]; AnxA1 1.6 mg/mL, 0.9% NaCl in Milli Q water, pH 7.1) of the same substance?
A: Its Avg. lag-time is 28.3 h.

Q: And the Avg. lag-time ([2]; AnxA1 1.6 mg/mL, CaCl2 0.77 mM, pH 7.2)?
A: The Avg. lag-time was 12.5 h.

Q: What about the Avg. lag-time ([2]; AnxA1 1.6 mg/mL, CaCl2 0.77 mM, pH 7.4) of the same substance?
A: The Avg. lag-time was 10.8 h.

Q: And the Avg. lag-time ([2]; AnxA1 1.6 mg/mL, NaCl 0.9%, CaCl2 0.77 mM, pH 7.1)?
A: Its Avg. lag-time is 5.4 h.

Q: And the Lag-time ([2]; AnxA1 1.6 mg/mL, mannitol 4 wt.%, sucrose 2.5 wt.%, glycyl-glycine 10 mM, pH 8.4)?
A: The Lag-time was >65 h.

Q: And the Lag-time ([2]; AnxA1 1.6 mg/mL, mannitol 5 wt.%, glycyl-glycine printed as 'e' mM, pH 8.3)?
A: Its Lag-time is >65 h.

Q: And the Lag-time ([2]; AnxA1 1.6 mg/mL, mannitol 5 wt.%, glycylglycine 10 mM, pH 8.0, no increase in fluorescence within 65 hours)?
A: The Lag-time was > 65* hours.

Q: What about the Avg-lag time ([2]; AnxA1 1.6 mg/mL, mannitol 5 wt.%, pH 6.7, no increase in fluorescence within 65 hours) of the same substance?
A: The Avg-lag time was > 65* h.

Q: What about the Lag-time ([2]; AnxA1 1.6 mg/mL, sucrose 10 wt.%, glycyl-glycine 50 mM, pH 7.6) of the same substance?
A: Its Lag-time is 64.7 h.

Q: What about the Lag-time ([2]; AnxA1 1.6 mg/mL, sucrose 10 wt.%, glycylglycine 10 mM, pH 8.0, no increase in fluorescence within 65 hours) of the same substance?
A: Its Lag-time is > 65* hours.

Q: What about the Avg-lag time ([2]; AnxA1 1.6 mg/mL, sucrose 10 wt.%, pH 7.2, no increase in fluorescence within 65 hours) of the same substance?
A: The Avg-lag time was > 65* h.

Q: And the Avg-lag time ([2]; AnxA1 1.6 mg/mL, trehalose 10 wt.%, pH 7.2)?
A: The Avg-lag time was 33.3 h.

Q: What about the Avg. lag-time ([2]; AnxA1 1.7 mg/mL in Milli-Q water, pH 7.4, no increase in fluorescence within 65 hours) of the same substance?
A: Its Avg. lag-time is > 65* h.

Q: What about the Lag-time ([2]; AnxA1 1.7 mg/mL, mannitol 5 wt.%, Tris 10 mM, pH 7.5, no increase in fluorescence within 65 hours) of the same substance?
A: The Lag-time was > 65* hours.

Q: What about the Lag-time ([2]; AnxA1 1.7 mg/mL, sorbitol 5 wt.%, Tris 10 mM, pH 7.6, no increase in fluorescence within 65 hours) of the same substance?
A: The Lag-time was > 65* hours.

Q: What about the Lag-time ([2]; AnxA1 1.7 mg/mL, sorbitol 5 wt.%, glycylglycine 10 mM, pH 8.0, no increase in fluorescence within 65 hours) of the same substance?
A: Its Lag-time is > 65* hours.

Q: And the Avg. lag-time ([2]; AnxA1 3.1 mg/mL in Milli-Q water, pH 7.4)?
A: The Avg. lag-time was 50.4 h.

Q: And the Lag-time ([2]; AnxA1 3.1 mg/mL, mannitol 5 wt.%, glycylglycine 10 mM, pH 8.0, no increase in fluorescence within 65 hours)?
A: Its Lag-time is > 65* hours.

Q: And the Avg. lag-time ([2]; AnxA1 3.2 mg/mL in Saline (0.9% NaCl), pH 7.4)?
A: Its Avg. lag-time is 5.6 h.

Q: What about the Avg. lag-time ([2]; AnxA1 3.2 mg/mL, 0.9% NaCl in Milli Q water, pH 7.4) of the same substance?
A: The Avg. lag-time was 9.3 h.

Q: And the Avg. lag-time ([2]; AnxA1 3.2 mg/mL, NaCl 0.9%, pH 7.2)?
A: The Avg. lag-time was 9.7 h.

Q: And the Lag-time ([2]; AnxA1 3.2 mg/mL, mannitol 5 wt.%, glycylglycine 10 mM, pH 8.0, no increase in fluorescence within 65 hours)?
A: The Lag-time was > 65* hours.

Q: And the Lag-time ([2]; AnxA1 3.3 mg/mL, mannitol 5 wt.%, glycylglycine 10 mM, pH 8.0, no increase in fluorescence within 65 hours)?
A: Its Lag-time is > 65* hours.

Q: What about the Lag-time ([2]; AnxA1 4.0 mg/mL, mannitol 5 wt.%, glycyl-glycine 10 mM, pH 8.2) of the same substance?
A: The Lag-time was >65 h.

Q: And the Lag-time ([2]; AnxA1 4 mg/mL, tonicity 100%, NaCl 0.9 wt%, positive control sample in 0.9% saline)?
A: Its Lag-time is 8.2* hours.

Q: What about the Avg. lag-time ([2]; AnxA1 4.6 mg/mL in Milli-Q water, pH 7.4) of the same substance?
A: The Avg. lag-time was 61.4 h.
